Results from article PMC11785374, “Synergistic effect of inhibiting CHK2 and DNA replication on cancer cell growth” (eLife, 2025).

Experiments:
[1] = target: T1, POLD1 (catalytic subunit of DNA polymerase δ) (Homo sapiens, UniProt P28340); assay: CETSA in MCF-7 cells ([…] BKC), western blot; type: cell-based
T1 sequence (P28340 1-1107): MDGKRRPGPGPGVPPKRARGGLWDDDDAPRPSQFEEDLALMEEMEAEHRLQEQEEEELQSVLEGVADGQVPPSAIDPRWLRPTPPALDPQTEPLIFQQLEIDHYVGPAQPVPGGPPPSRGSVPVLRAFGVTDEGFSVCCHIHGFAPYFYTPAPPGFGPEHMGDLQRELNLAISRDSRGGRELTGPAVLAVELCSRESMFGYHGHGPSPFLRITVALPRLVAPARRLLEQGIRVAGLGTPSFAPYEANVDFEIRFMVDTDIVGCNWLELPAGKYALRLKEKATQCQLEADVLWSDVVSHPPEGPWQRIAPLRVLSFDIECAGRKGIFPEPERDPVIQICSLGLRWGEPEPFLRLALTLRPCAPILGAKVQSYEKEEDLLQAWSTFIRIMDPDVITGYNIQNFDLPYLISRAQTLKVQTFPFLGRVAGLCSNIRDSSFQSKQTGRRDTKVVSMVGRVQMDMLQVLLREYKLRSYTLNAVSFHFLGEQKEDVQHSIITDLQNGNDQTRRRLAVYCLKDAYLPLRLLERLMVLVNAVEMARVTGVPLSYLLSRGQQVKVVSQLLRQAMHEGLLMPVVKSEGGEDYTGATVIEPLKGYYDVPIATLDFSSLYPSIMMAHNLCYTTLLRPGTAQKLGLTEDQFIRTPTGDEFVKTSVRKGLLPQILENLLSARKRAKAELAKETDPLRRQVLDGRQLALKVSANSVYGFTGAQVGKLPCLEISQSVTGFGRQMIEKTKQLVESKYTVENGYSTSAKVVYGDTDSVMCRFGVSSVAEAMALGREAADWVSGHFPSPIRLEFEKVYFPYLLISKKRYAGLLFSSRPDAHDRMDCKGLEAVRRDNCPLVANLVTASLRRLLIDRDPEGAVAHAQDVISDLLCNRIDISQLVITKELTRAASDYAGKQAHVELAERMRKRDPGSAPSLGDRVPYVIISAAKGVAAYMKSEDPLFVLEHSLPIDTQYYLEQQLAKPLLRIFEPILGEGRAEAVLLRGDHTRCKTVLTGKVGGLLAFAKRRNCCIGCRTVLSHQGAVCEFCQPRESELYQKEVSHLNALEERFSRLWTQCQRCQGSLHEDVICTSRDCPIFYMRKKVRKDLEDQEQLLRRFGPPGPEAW

[2] = target: POLE (catalytic subunit of DNA polymerase ε) (Homo sapiens, UniProt Q07864); assay: CETSA in MCF-7 cells ([…] BKC), western blot; type: cell-based
[3] = target: T2, POLD1 (p125, catalytic subunit of Polδ) (Xenopus laevis, UniProt Q642R8); assay: CETSA in Xenopus egg extracts ([…] BKC), western blot; type: cell-free
T2 construct: gene pold1.L
T2 sequence (Q642R8 1-1109): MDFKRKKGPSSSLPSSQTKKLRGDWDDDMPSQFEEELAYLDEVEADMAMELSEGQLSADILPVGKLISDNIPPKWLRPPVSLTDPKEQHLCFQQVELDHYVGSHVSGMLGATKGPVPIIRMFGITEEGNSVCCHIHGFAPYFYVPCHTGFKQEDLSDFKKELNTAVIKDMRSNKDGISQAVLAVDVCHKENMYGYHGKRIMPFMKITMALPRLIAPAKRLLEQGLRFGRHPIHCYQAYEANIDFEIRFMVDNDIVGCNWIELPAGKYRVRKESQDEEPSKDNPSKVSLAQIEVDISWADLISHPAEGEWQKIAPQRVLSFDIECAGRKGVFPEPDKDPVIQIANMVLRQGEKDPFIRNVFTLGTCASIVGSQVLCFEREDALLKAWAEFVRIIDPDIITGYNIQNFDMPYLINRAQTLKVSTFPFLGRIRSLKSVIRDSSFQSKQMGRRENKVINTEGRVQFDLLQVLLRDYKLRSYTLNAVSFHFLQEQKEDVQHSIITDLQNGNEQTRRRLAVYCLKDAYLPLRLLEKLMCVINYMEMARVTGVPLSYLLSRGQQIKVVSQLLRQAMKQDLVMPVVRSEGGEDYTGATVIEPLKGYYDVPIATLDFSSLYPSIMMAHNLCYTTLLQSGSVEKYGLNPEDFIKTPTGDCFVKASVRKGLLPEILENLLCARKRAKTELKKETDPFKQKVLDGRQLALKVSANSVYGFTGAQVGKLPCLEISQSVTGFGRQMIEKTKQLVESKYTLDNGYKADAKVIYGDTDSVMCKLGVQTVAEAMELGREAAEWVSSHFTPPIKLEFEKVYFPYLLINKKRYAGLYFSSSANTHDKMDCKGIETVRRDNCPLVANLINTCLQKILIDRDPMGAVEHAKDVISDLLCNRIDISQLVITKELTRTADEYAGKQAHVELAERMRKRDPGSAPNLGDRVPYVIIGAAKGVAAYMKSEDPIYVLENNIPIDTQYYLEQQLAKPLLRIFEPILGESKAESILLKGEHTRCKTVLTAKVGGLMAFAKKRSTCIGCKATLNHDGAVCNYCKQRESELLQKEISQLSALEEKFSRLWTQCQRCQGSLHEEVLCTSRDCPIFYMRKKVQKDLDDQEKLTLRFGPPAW

AKT1/PKBα = AKT1/PKBα (Homo sapiens, UniProt P31749); assay: radiometric in vitro kinase assay (Eurofins KinaseProfiler); type: biochemical
Aurora-A = target: T3, Aurora-A (Homo sapiens, UniProt O14965); assay: as above; type: biochemical
T3 construct: gene AURKA
T3 sequence (O14965 1-403): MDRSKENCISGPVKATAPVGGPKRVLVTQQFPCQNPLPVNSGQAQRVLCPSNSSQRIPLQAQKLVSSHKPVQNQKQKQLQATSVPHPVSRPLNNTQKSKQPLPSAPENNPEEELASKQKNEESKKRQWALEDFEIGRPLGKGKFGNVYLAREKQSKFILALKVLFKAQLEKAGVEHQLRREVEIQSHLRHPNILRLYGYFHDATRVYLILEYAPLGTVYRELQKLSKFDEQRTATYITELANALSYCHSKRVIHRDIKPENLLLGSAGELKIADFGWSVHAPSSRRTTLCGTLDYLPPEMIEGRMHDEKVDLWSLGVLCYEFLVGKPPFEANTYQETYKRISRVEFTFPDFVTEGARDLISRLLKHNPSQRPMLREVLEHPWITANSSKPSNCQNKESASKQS

CHK2 = target: T4, CHK2 (Homo sapiens, UniProt O96017); assay: radiometric in vitro kinase assay (Eurofins KinaseProfiler); also CETSA in MCF-7 cells; type: biochemical
T4 construct: gene CHEK2

JNK3 = target: T5, JNK3 (Homo sapiens, UniProt P53779); assay: radiometric in vitro kinase assay (Eurofins KinaseProfiler); type: biochemical
T5 construct: gene MAPK10

Aurora-B = target: T6, Aurora-B (Homo sapiens, UniProt Q96GD4); assay: as above; type: biochemical
T6 construct: gene AURKB
T6 sequence (Q96GD4 whole entry): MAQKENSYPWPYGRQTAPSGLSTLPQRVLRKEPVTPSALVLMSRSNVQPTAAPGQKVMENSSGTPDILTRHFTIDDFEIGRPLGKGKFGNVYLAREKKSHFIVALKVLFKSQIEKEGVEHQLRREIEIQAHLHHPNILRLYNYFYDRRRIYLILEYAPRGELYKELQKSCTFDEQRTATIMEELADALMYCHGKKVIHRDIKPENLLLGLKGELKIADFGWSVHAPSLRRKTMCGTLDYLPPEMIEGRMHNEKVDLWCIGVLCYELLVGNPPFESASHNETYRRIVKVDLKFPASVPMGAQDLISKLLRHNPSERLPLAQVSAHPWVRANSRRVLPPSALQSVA

Chain of POLE (catalytic subunit of DNA polymerase ε) (Q07864 whole entry): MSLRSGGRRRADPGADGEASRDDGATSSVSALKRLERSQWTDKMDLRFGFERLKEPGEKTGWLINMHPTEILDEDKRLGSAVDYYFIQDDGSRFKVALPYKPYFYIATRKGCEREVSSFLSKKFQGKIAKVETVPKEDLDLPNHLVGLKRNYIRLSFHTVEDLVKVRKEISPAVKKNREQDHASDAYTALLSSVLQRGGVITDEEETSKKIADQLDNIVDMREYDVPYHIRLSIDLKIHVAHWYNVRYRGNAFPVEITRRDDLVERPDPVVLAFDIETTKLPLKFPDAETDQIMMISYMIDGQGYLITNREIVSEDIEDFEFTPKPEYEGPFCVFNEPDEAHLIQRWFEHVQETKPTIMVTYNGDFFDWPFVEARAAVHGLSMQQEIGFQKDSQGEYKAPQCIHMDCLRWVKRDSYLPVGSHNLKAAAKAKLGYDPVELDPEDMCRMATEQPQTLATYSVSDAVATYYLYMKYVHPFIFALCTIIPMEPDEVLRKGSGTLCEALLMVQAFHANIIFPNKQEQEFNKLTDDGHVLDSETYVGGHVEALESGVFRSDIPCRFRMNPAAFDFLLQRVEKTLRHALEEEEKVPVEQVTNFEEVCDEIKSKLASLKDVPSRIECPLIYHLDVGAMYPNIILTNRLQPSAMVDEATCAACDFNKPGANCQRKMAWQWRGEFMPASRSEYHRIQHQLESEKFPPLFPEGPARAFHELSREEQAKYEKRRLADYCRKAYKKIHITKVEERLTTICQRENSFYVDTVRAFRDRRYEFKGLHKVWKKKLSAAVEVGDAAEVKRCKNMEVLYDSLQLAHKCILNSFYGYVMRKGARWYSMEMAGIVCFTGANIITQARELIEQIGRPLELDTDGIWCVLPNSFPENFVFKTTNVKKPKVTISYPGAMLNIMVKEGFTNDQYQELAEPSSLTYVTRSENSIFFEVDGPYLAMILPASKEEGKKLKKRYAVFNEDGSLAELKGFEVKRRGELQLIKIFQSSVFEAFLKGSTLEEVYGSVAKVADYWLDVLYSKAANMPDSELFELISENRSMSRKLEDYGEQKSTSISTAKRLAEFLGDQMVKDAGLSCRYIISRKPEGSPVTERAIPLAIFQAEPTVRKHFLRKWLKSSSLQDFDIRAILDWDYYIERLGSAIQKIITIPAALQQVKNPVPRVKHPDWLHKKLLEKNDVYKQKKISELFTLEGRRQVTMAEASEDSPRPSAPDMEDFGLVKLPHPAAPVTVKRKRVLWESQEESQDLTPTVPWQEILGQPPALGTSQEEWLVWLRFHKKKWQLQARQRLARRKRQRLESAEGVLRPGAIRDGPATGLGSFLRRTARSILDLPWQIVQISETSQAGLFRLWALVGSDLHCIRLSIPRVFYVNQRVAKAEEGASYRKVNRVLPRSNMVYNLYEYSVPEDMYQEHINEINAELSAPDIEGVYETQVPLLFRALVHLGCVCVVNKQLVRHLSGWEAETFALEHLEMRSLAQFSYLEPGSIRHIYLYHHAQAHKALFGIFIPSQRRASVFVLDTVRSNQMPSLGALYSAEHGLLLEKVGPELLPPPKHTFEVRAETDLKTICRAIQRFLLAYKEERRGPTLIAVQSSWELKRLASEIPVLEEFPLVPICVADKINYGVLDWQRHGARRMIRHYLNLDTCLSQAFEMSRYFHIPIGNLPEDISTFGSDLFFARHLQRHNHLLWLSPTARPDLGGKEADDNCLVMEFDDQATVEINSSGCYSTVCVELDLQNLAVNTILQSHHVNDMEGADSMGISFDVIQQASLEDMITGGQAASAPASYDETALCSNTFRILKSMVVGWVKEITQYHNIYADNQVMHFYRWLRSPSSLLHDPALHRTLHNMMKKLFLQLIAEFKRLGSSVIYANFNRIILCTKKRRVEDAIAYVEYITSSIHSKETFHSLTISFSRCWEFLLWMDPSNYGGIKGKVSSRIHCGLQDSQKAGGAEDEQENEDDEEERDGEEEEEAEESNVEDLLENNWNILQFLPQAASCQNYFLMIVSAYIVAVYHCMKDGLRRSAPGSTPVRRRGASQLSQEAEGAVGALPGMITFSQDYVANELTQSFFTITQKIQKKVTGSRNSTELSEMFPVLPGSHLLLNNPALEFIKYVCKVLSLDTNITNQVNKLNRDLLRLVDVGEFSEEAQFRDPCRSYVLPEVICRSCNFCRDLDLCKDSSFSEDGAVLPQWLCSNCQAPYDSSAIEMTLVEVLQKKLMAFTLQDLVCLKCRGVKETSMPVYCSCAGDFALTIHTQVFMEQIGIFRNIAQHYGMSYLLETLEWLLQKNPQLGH
Chain of AKT1/PKBα (P31749 whole entry): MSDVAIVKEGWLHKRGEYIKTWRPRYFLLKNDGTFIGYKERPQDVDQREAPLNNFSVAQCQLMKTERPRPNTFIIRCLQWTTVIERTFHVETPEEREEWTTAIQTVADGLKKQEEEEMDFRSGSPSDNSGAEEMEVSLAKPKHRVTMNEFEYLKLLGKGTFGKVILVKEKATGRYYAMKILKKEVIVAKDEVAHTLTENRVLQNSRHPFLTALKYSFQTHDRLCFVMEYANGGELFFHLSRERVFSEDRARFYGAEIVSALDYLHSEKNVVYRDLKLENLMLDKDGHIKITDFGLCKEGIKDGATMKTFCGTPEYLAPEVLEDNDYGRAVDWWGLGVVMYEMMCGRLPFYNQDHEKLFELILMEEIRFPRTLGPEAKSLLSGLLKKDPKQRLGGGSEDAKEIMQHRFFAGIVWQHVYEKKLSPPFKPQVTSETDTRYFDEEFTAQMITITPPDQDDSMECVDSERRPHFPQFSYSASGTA
T5 sequence (P53779 whole entry): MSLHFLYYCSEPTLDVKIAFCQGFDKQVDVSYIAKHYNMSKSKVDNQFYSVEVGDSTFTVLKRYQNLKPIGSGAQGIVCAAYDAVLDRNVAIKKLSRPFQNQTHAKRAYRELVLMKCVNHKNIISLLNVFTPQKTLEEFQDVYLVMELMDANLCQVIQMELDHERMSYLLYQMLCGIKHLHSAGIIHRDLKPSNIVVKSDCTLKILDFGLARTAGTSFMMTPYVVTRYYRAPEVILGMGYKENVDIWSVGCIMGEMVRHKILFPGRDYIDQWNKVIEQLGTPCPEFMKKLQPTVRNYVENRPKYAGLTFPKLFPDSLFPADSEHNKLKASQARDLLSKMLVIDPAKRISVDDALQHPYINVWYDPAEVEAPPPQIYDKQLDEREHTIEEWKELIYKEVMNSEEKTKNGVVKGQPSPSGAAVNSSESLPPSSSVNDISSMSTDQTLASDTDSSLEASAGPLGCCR
T4 sequence (O96017 whole entry): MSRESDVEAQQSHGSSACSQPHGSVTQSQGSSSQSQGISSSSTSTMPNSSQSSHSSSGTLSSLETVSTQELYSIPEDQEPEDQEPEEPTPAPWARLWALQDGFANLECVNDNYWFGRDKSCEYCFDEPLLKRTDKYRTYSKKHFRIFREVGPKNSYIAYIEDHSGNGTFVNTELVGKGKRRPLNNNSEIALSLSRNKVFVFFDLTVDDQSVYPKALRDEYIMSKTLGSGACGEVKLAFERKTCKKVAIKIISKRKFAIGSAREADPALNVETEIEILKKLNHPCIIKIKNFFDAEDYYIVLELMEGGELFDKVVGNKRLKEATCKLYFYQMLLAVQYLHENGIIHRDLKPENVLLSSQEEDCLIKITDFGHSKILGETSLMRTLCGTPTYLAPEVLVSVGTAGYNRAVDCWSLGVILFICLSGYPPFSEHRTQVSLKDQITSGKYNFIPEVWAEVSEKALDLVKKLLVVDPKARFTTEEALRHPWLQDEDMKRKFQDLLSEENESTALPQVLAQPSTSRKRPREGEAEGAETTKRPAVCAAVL

IC50 (AKT1/PKBα) [µM] | IC50 (Aurora-A) [µM] | IC50 (CHK2) [µM] | IC50 (JNK3) [µM] | IC50 (Aurora-B) [µM] | SMILES | CETSA in MCF-7 cells (40 μM BKC), western blot [1] | CETSA in MCF-7 cells (40 μM BKC), western blot [2] | CETSA in Xenopus egg extracts (40 μM BKC), western blot [3]
– | – | – | – | – | C=C[C@@](C)(/C=C/c1ccc(O)cc1)CCC=C(C)C [BKC, Bakuchiol] | BKC interacts with the catalytic subunits of Polδ and Polε in MCF-7 cells | BKC interacts with the catalytic subunits of Polδ and Polε in MCF-7 cells | BKC specifically stabilize the catalytic subunit POLD1 of Polδ, but not that of the accessory subunit POLD3 in Xenopus
56.7 | 11.2 | 3.5 | 16.4 | 11.2 | CC(C)=CCc1c(O)ccc(C(=O)/C=C/c2ccc(O)cc2)c1O [IBC, Isobavachalcone] | – | – | –
